Experimental data as given in US9783785B2, “Screening methods for detection of susceptibility to leukemia and lymphomas” (priority 2010, dated 2017).

Key:
[1] = tested on: mononuclear cells from "normal"/sickle cell patients (controls); test: cell surface phenotyping by flow cytometry, control cells; format: cell-based, human; conditions: compared to media only, days 1-4
Method: (§1) Subject to parental/patient consent, approximately 15 ml of blood was obtained from leukemic patients in remission, long-term survivors of acute lymphoblastic leukemia and normal volunteers. Additional “normal” control samples were collected from the first drawing of blood in sickle cell patients undergoing manual partial exchange transfusion, or samples of blood discarded by the blood bank from normal donors. Patient blood was placed into heparin (1000 USP u/ml). Peripheral blood mononuclear cells (PBMC) were isolated by density gradient centrifugation (400×g, 40 minutes, and 18° C.) with Ficoll Paque Plus (GE Healthcare, Amersham Biosciences; Uppsala, Sweden), followed by washing with phosphate-buffered saline. Plasma was also collected simultaneously and stored at −80° C. until use. […]
(§2) Frozen specimens were thawed in a 37° C. water bath with continuous agitation. […] These cells (frozen/thawed PBMC) were then assessed for viability by trypan blue dye exclusion, counted, and re-suspended in the medium for assay. […]
(§3) At time intervals of 24, 48, 72 and 96 hrs, cell surface phenotyping was performed by flow cytometry. […] Acquisition and Analysis was carried out on fluorescence activated cell sorting (FACS) BD FACS Canto II using FACSDiva v 6.1.2. […] Percentage of cells positive for CD10CD19, CD34CD19 and CD34CD117 were recorded.

[2] = tested on: mononuclear leukocytes of long-term survivors of acute lymphoblastic leukemia (ALL); test: cell surface phenotyping by flow cytometry, cells of ALL patients; format: cell-based, human; conditions: cells of leukemic patients in remission/long-term ALL survivors; compared to media only; days 1-4
Method: as §1, §2, §3

## Aflotoxin B1 [aflotoxin (AT)]
[1]
  development of cell surface phenotypes characteristic of ALL (CD10/CD19, CD34/CD19, CD34/CD117): indiscriminately induced increased development
[2]
  development of cell surface phenotypes characteristic of ALL (CD10/CD19, CD34/CD19, CD34/CD117): indiscriminately induced increased development
